From ChEMBL document CHEMBL1201862, “PubChem BioAssay data set” (2004) come the findings set out here.

Experiment in all cases: NCI anticancer screen, dose series, 48 h
The test system of test [1] is SK-MEL-2.
Test [2] concerns RPMI-8226.
Test [3] has as its system NCI-H460.
Test [4] deals with UACC-257.
Test [5] has as its system MDA-MB-231.
Test [6] has as its system OVCAR-5.
Test [7] concerns UO-31.
For test [8], the system named is SF-295.
Test [9] deals with NCI/ADR-RES.
Test [10] has as its system NCI-H23.
The test system of test [11] is HCT-15.
In test [12] the test system is IGROV-1.
For test [13], the system named is A498.
For test [14], the system named is MDA-MB-435.
For test [15], the system named is LOX IMVI.
Test [16] concerns A549.
In test [17] the test system is HT-29.
Test [18] relates to Malme-3M.
The subject of test [19] is HCC 2998.

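Results reflect a 48-hour exposure of cells in 96-well plates to compound at five concentrations. Here, GI50 denotes the concentration required for 50% inhibition of growth.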 Activity calls are given as the source filed them. Rule as the data show it: active = GI50 up to about 1.1 µM and inactive = higher.

Take `COc1ccc(C2C=C(c3ccccc3)Nc3nnnn32)cc1` (stereo not given): the GI50 in [1] was 38.7 µM (inactive); in [2] it was 51.9 µM (inactive); in test [3] it was 45 µM (inactive); in [4], 98.4 µM (inactive); in test [5] it was 26.6 µM (inactive); in [6] it was 37.7 µM (inactive). Further, the GI50 in test [7] was 90.8 µM (inactive); in test [8] it was 31 µM (inactive); in test [9] it was > 100 µM (inactive); in [10], > 100 µM (inactive); in test [11], 31 µM; in [12], 82.8 µM (inactive). In addition, the GI50 is 34.4 µM (inactive) in [13]; 76.6 µM (inactive) in test [14]; 41.7 µM (inactive) in test [15]; 41.3 µM (inactive) in test [16]; 18.1 µM (inactive) in test [17].

Regarding `CCC1(CC)C(=O)N(C(=O)c2ccc(Cl)cc2)N(C(=O)c2ccccc2Cl)C1=O`, the GI50 is > 100 µM (inactive) in [1]; 25.8 µM (inactive) in test [2]; 19.3 µM (inactive) in test [3]; > 100 µM (inactive) in [4]; 50.5 µM (inactive) in test [5]; > 100 µM (inactive) in test [6]. Moreover, the GI50 in test [18] was 35.7 µM (inactive); in test [7], > 100 µM (inactive); in test [8] it was 63.5 µM (inactive); in test [19], > 100 µM (inactive); in test [9] it was 28.3 µM (inactive); in test [10] it was 32.1 µM (inactive). Moreover, the GI50 in [11] was 41 µM; in test [12], 3.5 µM (inactive); in test [14], 11.2 µM (inactive); in [15], 21 µM (inactive); in test [16], > 100 µM (inactive); in test [17] it was 10.7 µM (inactive).

For the molecule `N#CCCOc1cccc(C2(N3CCCCC3)CCCCC2)c1`, the GI50 in test [1], in test [2], in [4], in [5], in [6] and in [18] was > 100 µM (inactive) throughout. The GI50 in test [7] is > 100 µM (inactive); in test [8], > 100 µM (inactive); in test [9], > 100 µM (inactive); in test [10] it was > 100 µM (inactive); in test [11] it was greater than 100 µM; in test [12], > 100 µM (inactive). Also, the GI50 in test [13], in test [14], in test [15], in test [16] and in test [17] was > 100 µM (inactive) in each case.

Turning to `CC(ON1[C@](C)(c2ccccc2)CC[C@@]1(C)c1ccccc1)c1ccccc1` (stereo not given in full), the GI50 in test [1] was 20 µM (inactive); in [2], 22.4 µM (inactive); in [3], 36.2 µM (inactive); in [4] it was 28.3 µM (inactive); in test [5], 43.3 µM (inactive); in test [6], 41.1 µM (inactive). The GI50 in test [18] was 32.5 µM (inactive); in [7] it was 37.9 µM (inactive); in test [8], 26.3 µM (inactive); in [19], 20.9 µM (inactive); in test [9] it was 48.2 µM (inactive); in test [10], 40 µM (inactive). For the same molecule, the GI50 in test [11] is greater than 100 µM; in test [12], 52 µM (inactive); in test [14] it was 44.4 µM (inactive); in [15], 31.2 µM (inactive); in [16] it was 30.9 µM (inactive); in [17], 31.2 µM (inactive).

`CC(=O)C1(/N=N/c2ccc(S(N)(=O)=O)cc2)CCOC1=O` (stereo not given): the GI50 in [1], in [3], in test [4], in [5], in [6] and in test [18] was > 100 µM (inactive) each time. Also, the GI50 is > 100 µM (inactive) in test [7]; > 100 µM (inactive) in test [8]; > 100 µM (inactive) in [9]; > 100 µM (inactive) in test [10]; greater than 100 µM in test [11]; > 100 µM (inactive) in [12]. Further, the GI50 in [13], in [14], in test [15], in test [16] and in [17] was > 100 µM (inactive) in each case.

With `COc1ccc(NC(=O)C(C#N)=C(SC)SC)cc1`, the GI50 in [1], in test [2], in test [3], in [4], in test [5] and in test [6] was > 100 µM (inactive) in each case. Further, the GI50 is > 100 µM (inactive) in test [18]; 60.3 µM (inactive) in test [7]; > 100 µM (inactive) in test [8]; > 100 µM (inactive) in [19]; > 100 µM (inactive) in [10]; greater than 100 µM in test [11]. In addition, the GI50 in [12] was 58.6 µM (inactive); in [13], > 100 µM (inactive); in test [14], > 100 µM (inactive); in test [15] it was > 100 µM (inactive); in [16] it was > 100 µM (inactive); in test [17], > 100 µM (inactive).

As for `COC1/C=C(C)/C=C/C(C)/C=C/C(=O)OC(/C(C)=C/C=C(\C)CNC(=O)[C@H](CO)NC=O)C(C)/C=C/C=C/C(OC)CC/C=C(C)/C=C/C1` (stereo not given in full), the GI50 is 0.0341 µM (active) in test [1]; 0.0215 µM (active) in test [2]; 0.0316 µM (active) in test [3]; 0.0264 µM (active) in test [4]; 0.012 µM (active) in test [5]; 0.0328 µM (active) in [6]. The GI50 in test [18] was 0.0863 µM (active); in [7], 0.197 µM (active); in test [8], 0.0229 µM (active); in test [9], 0.407 µM (active); in test [10] it was 0.0497 µM (active); in [11], 0.111 µM. Moreover, the GI50 is 0.262 µM (active) in [12]; > 1 µM (active) in test [13]; 0.0224 µM (active) in test [14]; 0.0265 µM (active) in test [15]; 0.0307 µM (active) in test [16]; 0.0125 µM (active) in test [17].

Consider `CCOC(=O)C1=COC(C)(C)CC1=O`, for which the GI50 in test [1], in test [2], in test [3], in test [4], in [5] and in test [6] was > 100 µM (inactive) in each case. In addition, the GI50 in [7] is > 100 µM (inactive); in [8] it was > 100 µM (inactive); in test [9], > 100 µM (inactive); in [10] it was > 100 µM (inactive); in test [11] it was greater than 100 µM; in [13], > 100 µM (inactive). For the same molecule, the GI50 in [14], in [16] and in test [17] was > 100 µM (inactive) each time.

Turning to `COc1cc(/N=C\N(C)C)c2ncccc2c1`, the GI50 is 46.2 µM (inactive) in test [1]; 46.5 µM (inactive) in test [2]; > 100 µM (inactive) in test [4]; 35.2 µM (inactive) in test [5]; > 100 µM (inactive) in test [6]; > 100 µM (inactive) in test [18]. Further, the GI50 was 52 µM (inactive) in [7]; 93.3 µM (inactive) in test [8]; 45.4 µM (inactive) in test [9]; > 100 µM (inactive) in test [10]; 38.1 µM in [11]; 33.9 µM (inactive) in test [12]. For the same molecule, the GI50 in [13] is 42.7 µM (inactive); in test [14], 28.5 µM (inactive); in [15] it was 44.4 µM (inactive); in test [16], 79.6 µM (inactive); in [17], 69.8 µM (inactive).

With `CS/C=C\C(=O)O[C@H]1C[C@@H]2[C@@H](O)c3occ(C)c3C[C@]2(C)[C@@H](C)C1`, the GI50 in test [2] is 30.4 µM (inactive); in test [3], 21.6 µM (inactive); in test [4], 14.8 µM (inactive); in test [5], 22.4 µM (inactive); in test [6], 34.8 µM (inactive); in test [18], 18.3 µM (inactive). Moreover, the GI50 in test [8] was 29.6 µM (inactive); in [19] it was 29.2 µM (inactive); in test [9], 18.5 µM (inactive); in test [10], 30.3 µM (inactive); in [11] it was 30.1 µM; in test [12] it was 20.4 µM (inactive). Further, the GI50 in [14] was 23.1 µM (inactive); in [15], 17.6 µM (inactive); in test [17] it was 22.6 µM (inactive).

On to `CC(C)[Si]1(C(C)C)OCC2OC(n3ccc(=O)[nH]c3=O)C(O)(CO)C2O[Si](C(C)C)(C(C)C)O1` (stereo not given), for which the GI50 in test [1] was 16.7 µM (inactive); in test [2] it was 9.82 µM (inactive); in test [4], 15.3 µM (inactive); in test [5], 13.6 µM (inactive); in test [6], 15.9 µM (inactive); in test [18] it was 15 µM (inactive). Further, the GI50 was 10.2 µM (inactive) in test [7]; 15 µM (inactive) in test [8]; 16 µM (inactive) in test [9]; 3.62 µM (inactive) in [10]; 18.4 µM in test [11]; 11.6 µM (inactive) in [12]. Besides, the GI50 in [13] was 20.7 µM (inactive); in [14], 17 µM (inactive); in [15] it was 15.8 µM (inactive); in test [16], 14.4 µM (inactive); in [17], 15 µM (inactive).

Turning to `Nc1ccc(-c2nn3c(COc4ccc(Cl)cc4)nnc3s2)cc1`, the GI50 in test [1] is > 100 µM (inactive); in test [2], 77.6 µM (inactive); in [3], 40 µM (inactive); in test [4], > 100 µM (inactive); in test [5], 87.3 µM (inactive); in test [6], > 100 µM (inactive). Further, the GI50 in test [18] is > 100 µM (inactive); in test [7], 84.9 µM (inactive); in test [8] it was 56.9 µM (inactive); in [19], > 100 µM (inactive); in test [9], > 100 µM (inactive); in test [10], > 100 µM (inactive). For the same molecule, the GI50 in [11] is greater than 100 µM; in test [12] it was > 100 µM (inactive); in [14], 62.2 µM (inactive); in test [15], > 100 µM (inactive); in test [16] it was > 100 µM (inactive); in [17], > 100 µM (inactive).
